According to PMC6934184, “Selective DNA-PKcs inhibition extends the therapeutic index of localized radiotherapy and chemotherapy” (The Journal of Clinical Investigation, 2019):

Biological target: T1, MAPK3 (ERK1) (Homo sapiens, UniProt P27361)
T1 construct: purchased Thermo Fisher Scientific (Life Technologies) SelectScreen
Experiment: SelectScreen Z'LYTE
Type: biochemical
Method in brief: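 Percent values come from Thermo SelectScreen profiling of NU5455, combining activity and binding assays. CSF1R was run in Z'LYTE format at Km app ATP, and CAMK1 in Adapta format with ATP listed at 10.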

T1 sequence (P27361 whole entry): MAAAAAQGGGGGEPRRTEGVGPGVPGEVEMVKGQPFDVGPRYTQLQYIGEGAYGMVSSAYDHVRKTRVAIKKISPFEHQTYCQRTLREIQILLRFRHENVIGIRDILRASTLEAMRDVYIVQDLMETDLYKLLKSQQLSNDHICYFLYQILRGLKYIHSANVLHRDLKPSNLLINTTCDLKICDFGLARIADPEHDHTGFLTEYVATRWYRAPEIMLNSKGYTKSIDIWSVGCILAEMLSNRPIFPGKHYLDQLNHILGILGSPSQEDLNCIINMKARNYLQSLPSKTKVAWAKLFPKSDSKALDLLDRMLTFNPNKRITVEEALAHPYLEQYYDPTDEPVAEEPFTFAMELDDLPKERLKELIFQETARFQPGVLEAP

With `CN(C(=O)CN1CCOCC1)c1ccc2sc3c(-c4cccc5c(=O)cc(N6CC7CCC(C6)O7)oc45)cccc3c2c1` [NU5455] the inhibition at 1 µM was 9.5%.
